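Following 48 hours of exposure in 96-well plates, responses at five concentrations were used to interpolate endpoints linearly. GI50: concentration for 50% inhibition of growth. TGI denotes the concentration required for complete inhibition of growth.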
What was measured:
Assay in all cases: growth of human tumour cells (NCI), 48 h
[1] = system: DU-145 prostate
[2] = system: SR leukemia
[3] = system: OVCAR-5 ovarian
[4] = system: NCI/ADR-RES ovarian
[5] = system: NCI-H460 lung
[6] = system: M14 melanoma
[7] = system: SF-295 CNS
[8] = system: MDA-MB-231 breast
[9] = system: SNB-75 CNS
[10] = system: RPMI-8226 leukemia

| Compound | TGI [1] | TGI [2] | TGI [3] | TGI [4] | TGI [5] | TGI [6] | TGI [7] | TGI [8] | TGI [9] | TGI [10] | GI50 [10] | GI50 [1] | GI50 [3] | GI50 [4] | GI50 [5] | GI50 [6] | GI50 [7] | GI50 [8] |
| --- | --- | --- | --- | --- | --- | --- | --- | --- | --- | --- | --- | --- | --- | --- | --- | --- | --- | --- |
| Nc1nc(SCCc2ccccc2)c2[nH]cnc2n1 | > 100 µM | > 100 µM | > 100 µM | > 100 µM | > 100 µM | > 100 µM | > 100 µM | > 100 µM | > 100 µM | – | – | – | – | – | – | – | – | – |
| Cc1n[nH]c(=O)n1/N=C/c1ccc(Cl)cc1 | > 100 µM | > 100 µM | > 100 µM | > 100 µM | > 100 µM | > 100 µM | > 100 µM | – | > 100 µM | > 100 µM | – | – | – | – | – | – | – | – |
| CCOC(=O)c1csc(NC(=O)CN2CCOCC2)n1 | > 100 µM | > 100 µM | > 100 µM | > 100 µM | > 100 µM | > 100 µM | > 100 µM | > 100 µM | > 100 µM | > 100 µM | – | – | – | – | – | – | – | – |
| CC1(C)OC(=O)N(c2ccccc2)C12C=Cc1cc([N+](=O)[O-])cc([N+](=O)[O-])c1O2 (stereo unspecified) | > 100 µM | > 100 µM | > 100 µM | > 100 µM | > 100 µM | > 100 µM | > 100 µM | > 100 µM | > 100 µM | > 100 µM | – | – | – | – | – | – | – | – |
| O=c1[nH]c(Nc2cccc(CC(F)(F)F)c2)nc2nc[nH]c12 | > 100 µM | > 100 µM | > 100 µM | > 100 µM | > 100 µM | > 100 µM | > 100 µM | > 100 µM | > 100 µM | > 100 µM | – | – | – | – | – | – | – | – |
| CC(=O)NC(Cc1ccc(O)cc1)C(=O)O (stereo unspecified) | > 100 µM | – | > 100 µM | > 100 µM | > 100 µM | > 100 µM | > 100 µM | > 100 µM | – | > 100 µM | – | – | – | – | – | – | – | – |
| CC(C)(C)OC(=O)N[C@H]1CCN(C2CCCCC2)C1=O | > 100 µM | – | > 100 µM | > 100 µM | > 100 µM | > 100 µM | – | > 100 µM | > 100 µM | > 100 µM | – | – | – | – | – | – | – | – |
| O=C1/C(=C/c2ccccc2)N=C2Sc3c(nc[nH]c3=O)N12 | > 100 µM | 68 µM | > 100 µM | > 100 µM | – | > 100 µM | > 100 µM | > 100 µM | > 100 µM | > 100 µM | – | – | – | – | – | – | – | – |
| CCCCC#C[I+]c1ccccc1 | – | 37.5 µM | 28 µM | – | 26.9 µM | 29 µM | 43.5 µM | – | 30.1 µM | – | – | – | – | – | – | – | – | – |
| C=C(C)C(=O)OC1C/C(CO)=C\C(O)C/C(C)=C/C2OC(=O)C(=C)C21 (stereo unspecified) | – | 50.5 µM | > 100 µM | – | 35 µM | 40.6 µM | > 100 µM | – | > 100 µM | 45.6 µM | – | – | – | – | – | – | – | – |
| O=C(CCN1CCCCC1)C(=Cc1ccccc1)C(=O)CCN1CCCCC1 | – | – | > 100 µM | > 100 µM | > 100 µM | – | > 100 µM | – | > 100 µM | 57.9 µM | 4.49 µM | – | – | – | – | – | – | – |
| COc1cc(C2c3cc4c(cc3OC(N3CCOCC3)C2C)OCO4)ccc1O (stereo unspecified) | > 100 µM | > 68.9 µM | > 100 µM | 52.2 µM | 55.5 µM | > 63.5 µM | 38.2 µM | – | > 58 µM | 19.9 µM | – | – | – | – | – | – | – | – |
| CCCCCCCCCCCCCCNC(=O)CCC(NC(=O)c1ccc(N(C)Cc2cnc3nc(N)nc(N)c3n2)cc1)C(=O)NCCCCCCCCCCCCCC (stereo unspecified) | > 100 µM | 21.8 µM | > 48.3 µM | > 100 µM | 13.1 µM | > 40.4 µM | 28.9 µM | > 44.8 µM | 34.8 µM | – | – | – | – | – | – | – | – | – |
| Cc1c(O)c(O)cc[n+]1C1OC(CO)C(O)C1O (stereo unspecified) | – | – | > 100 µM | – | > 100 µM | > 100 µM | – | – | > 100 µM | > 100 µM | – | – | – | – | – | – | – | – |
| NC(N)=N/N=C/c1c(-c2ccc(N)cc2)nc2sccn12 | 35.5 µM | 89.3 µM | 46.8 µM | > 100 µM | 76.8 µM | 57.9 µM | 55.6 µM | 48.4 µM | – | 99.2 µM | – | – | – | – | – | – | – | – |
| C=CC1(C)CCC2C(=CCC3C2(C)CC(O)C(O)C3(C)COC2OC(C(=O)O)C(O)C(O)C2O)C1 (stereo unspecified) (tested in a mixture with another compound) | > 100 µM | > 100 µM | > 100 µM | – | > 100 µM | > 100 µM | > 100 µM | > 100 µM | > 100 µM | > 100 µM | – | – | – | – | – | – | – | – |
| CC(C)(C)OC(=O)NCCCCC1NC(=O)[C@@H]2Cc3c([nH]c4ccccc34)C(C3CCCCC3)N2C1=O (stereo partly specified) | > 100 µM | 36.8 µM | > 100 µM | > 100 µM | > 100 µM | > 100 µM | 63 µM | > 100 µM | – | 41 µM | – | – | – | – | – | – | – | – |
| O=c1ccc(-c2ccccc2)n[nH]1 | > 100 µM | > 100 µM | > 100 µM | > 100 µM | > 100 µM | > 100 µM | > 100 µM | > 100 µM | – | – | – | – | – | – | – | – | – | – |
| COc1ccc(N/N=C2\CCOc3ccc(C)cc3C2=O)cc1 | > 100 µM | > 100 µM | > 100 µM | > 100 µM | 53.7 µM | > 100 µM | > 100 µM | > 100 µM | – | 84.1 µM | – | – | – | – | – | – | – | – |
| COC(=O)C([C@H](NC1(c2ccccc2)c2ccccc2-c2ccccc21)C(=O)OC)N(NC(=O)OCc1ccccc1)C(=O)OCc1ccccc1 (mixture of isomers) | > 100 µM | > 100 µM | > 100 µM | > 100 µM | > 100 µM | > 100 µM | > 100 µM | > 100 µM | – | > 100 µM | – | – | – | – | – | – | – | – |
| Clc1ccccc1C(SCc1ccccc1)SCc1ccccc1 | > 100 µM | > 100 µM | > 100 µM | > 100 µM | > 100 µM | > 100 µM | > 100 µM | – | > 100 µM | > 100 µM | – | – | – | – | – | – | – | – |
| O=C1c2ccccc2-c2c1c1ccccc1c(=O)n2CCNCCNCCNCCn1c2c(c3ccccc3c1=O)C(=O)c1ccccc1-2 | 1.76 µM | – | – | > 54.9 µM | > 100 µM | 3.5 µM | 7.58 µM | 1.01 µM | – | – | 0.0499 µM | 0.33 µM | 0.449 µM | 3.9 µM | 0.0707 µM | 1.61 µM | 1.4 µM | 0.136 µM |
| CC(=O)OC1CC(OC2C(O)CC(OC3C(O)CC(OC4CCC5(C)C(CCC6C5CC(O)C5(C)C(C7=CC(=O)OC7)CCC65O)C4)OC3C)OC2C)OC(C)C1OC1OC(CO)C(O)C(O)C1O (stereo unspecified) | 0.106 µM | – | 0.222 µM | 0.122 µM | 0.0678 µM | 0.343 µM | 0.179 µM | 2.41 µM | 0.846 µM | 25.7 µM | – | – | – | – | – | – | – | – |

From PubChem BioAssay (NCI)
